60 compounds from patent US9346769B2, “Tetrazolones as inhibitors of fatty acid synthase” (Infinity Pharmaceuticals, Inc., priority 2010, dated 2016) can be followed below.

Structures are written as SMILES.

Assay [1] concerns the target T1, human FASN (Homo sapiens, UniProt P49327).
T1 construct: was purified from SKBR3 cells using procedures modified from those in Jayakumar et al; endogenous in cells; host or cells: SKBR3 human breast cancer cells (ATCC); Endogenous enzyme purified by ammonium sulfate precipitation and a mono Q column
Kind of assay: FASN Scintillation Proximity Flashplate Assay. The note with it: human FASN purified from SKBR3 cells; unstarred symbols. It counts as biochemical. On the procedure: Human FASN protein (SEQ ID NO. 1) was purified from SKBR3 cells using procedures modified from those in Jayakumar et al. PNAS 1995, 92:8695-8699. SKBR3 cells were obtained from ATCC and grown in DMEM high glucose medium supplemented with 10% FBS, 1 μg/mL bovine pancreas insulin, 100 U/mL penicillin and 100 µg/mL streptomycin. The confluent cells were trypsinized and washed three times with PBS buffer before frozen in liquid N2 and stored at −80° C. Frozen cells were thawed on ice and resuspended in lysis buffer (25 mM Tris-HCl, pH 7.0, 15 mM NaCl, 1 mM EDTA, and 1 mM DTT) with protease inhibitors. The cells were lysed by sonication, and the cell debris was removed by centrifugation at 20,000 rpm for 30 min. To the supernatant, neutralized saturated ammonium sulfate solution was added to a final concentration of 35%. The solution was left on ice for 1 hr, and the precipitated proteins were harvested by centrifugation at 20,000 rpm for 30 min. The proteins were redissolved in lysis buffer without NaCl and loaded on a mono Q column. Bound proteins were eluted with a linear gradient of NaCl in lysis buffer. Each fraction was analyzed by SDS-PAGE and FASN NADPH consumption assay. The fractions containing FASN were pooled and concentrated to 2-3 mg/mL. Glycerol was added to 20%, and the protein was frozen in liquid N2 and stored at −80° C.
Acetyl-coenzyme A, malonyl-coenzyme A, NADPH, bovine gamma globulin, and ORLISTAT were purchased from Sigma (St. Louis, Mo.). Tris(2-carboxyethyl) phosphine hydrochloride (TCEP) was purchased from Pierce Biotechnologies (Rockford, Ill.). [^3H]-acetyl-coenzyme A was purchased from Moravek Biochemicals (Brea, CA). FlashPlate™ PLUS phospholipid 96-well scintillant coated microplates were purchased from Perkin Elmer Life and Analytical Sciences (Shelton, CT). The method of the FASN Scintillation Proximity FlashPlate assay is similar to that described in Weiss and Glickman Assay Drug Dev Technol 2003, 1:161-6. In a 96-well polypropylene microplate, a dilution series (typical concentrations 60 nM-1.0 mM) of test compounds were prepared in DMSO followed by a 20-fold dilution into FASN assay buffer (50 mM potassium phosphate, pH 7.0, 1.0 mM EDTA, 0.01% NP-40), of which 5.0 μL each was transferred to a FlashPlate® PLUS 96-well plate and mixed with 35 μL FASN assay buffer plus 0.5 mg/mL bovine gamma globulin and 1 mM TCEP. FASN protein (10 μL, 10 nM) was added per well, and the microplate was incubated at 37° C. for 30 min. 10 μL of 20 mM NADPH was added, and the reaction was initiated by addition of […] substrate mixture to final concentrations of 1 nM FASN, 100 μM acetyl-coenzyme A, 6 μCi [^3H]-acetyl-coenzyme A, 300 μM malonyl-coenzyme A, 2 mM NADPH, 0.5 mg/mL bovine gamma globulin, and 1 mM TCEP in a volume of 100 μL per well. Assay plates were incubated for 2 hr at 37° C. and the reaction was stopped with 2 μL of 2.5 mM stock solution of ORLISTAT in DMSO to ˜50 μM. The plates were read in a Wallac 1450 Microbeta Plus liquid scintillation counter (Perkin Elmer, Waltham, Mass.), and counts per minute (CPM) were collected over 2 min. Each inhibitor well CPM was compared to the maximum FASN enzyme activity (Max) CPM and the background (Min) CPM, as measured by omission of FASN enzyme in the background well. % Inhibition values were calculated, and curves were fitted by a four-parameter logistic function to yield IC50 values:
Compounds were assayed as inhibitors of human FASN using the above-described FASN Scintillation Proximity Flashplate Assay (IC50; nM) or FASN NADPH Consumption Assay (*) (IC50; nM). The corresponding activity of the isolated compound is also provided along with the measured mass (ES^+).

The target of assay [2] is T1, human FASN. Nature of the assay: FASN NADPH Consumption Assay. It counts as biochemical. The note with it: human FASN purified from SKBR3 cells; starred symbols. In outline: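 Native human FASN purified from SKBR3 cells (60 nM final) preincubated 30 min at 37 °C with compound (2.4 nM–40 μM, 4% DMSO) in pH 7.0 phosphate buffer with 5 mM DTT. Reaction started with 0.2 mM NADPH, 50 μM butyryl-CoA, 0.5 mM malonyl-CoA; NADPH consumption followed kinetically by fluorescence (ex 340/em 460 nm); IC50 from logistic fit.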

T1 sequence (P49327 whole entry): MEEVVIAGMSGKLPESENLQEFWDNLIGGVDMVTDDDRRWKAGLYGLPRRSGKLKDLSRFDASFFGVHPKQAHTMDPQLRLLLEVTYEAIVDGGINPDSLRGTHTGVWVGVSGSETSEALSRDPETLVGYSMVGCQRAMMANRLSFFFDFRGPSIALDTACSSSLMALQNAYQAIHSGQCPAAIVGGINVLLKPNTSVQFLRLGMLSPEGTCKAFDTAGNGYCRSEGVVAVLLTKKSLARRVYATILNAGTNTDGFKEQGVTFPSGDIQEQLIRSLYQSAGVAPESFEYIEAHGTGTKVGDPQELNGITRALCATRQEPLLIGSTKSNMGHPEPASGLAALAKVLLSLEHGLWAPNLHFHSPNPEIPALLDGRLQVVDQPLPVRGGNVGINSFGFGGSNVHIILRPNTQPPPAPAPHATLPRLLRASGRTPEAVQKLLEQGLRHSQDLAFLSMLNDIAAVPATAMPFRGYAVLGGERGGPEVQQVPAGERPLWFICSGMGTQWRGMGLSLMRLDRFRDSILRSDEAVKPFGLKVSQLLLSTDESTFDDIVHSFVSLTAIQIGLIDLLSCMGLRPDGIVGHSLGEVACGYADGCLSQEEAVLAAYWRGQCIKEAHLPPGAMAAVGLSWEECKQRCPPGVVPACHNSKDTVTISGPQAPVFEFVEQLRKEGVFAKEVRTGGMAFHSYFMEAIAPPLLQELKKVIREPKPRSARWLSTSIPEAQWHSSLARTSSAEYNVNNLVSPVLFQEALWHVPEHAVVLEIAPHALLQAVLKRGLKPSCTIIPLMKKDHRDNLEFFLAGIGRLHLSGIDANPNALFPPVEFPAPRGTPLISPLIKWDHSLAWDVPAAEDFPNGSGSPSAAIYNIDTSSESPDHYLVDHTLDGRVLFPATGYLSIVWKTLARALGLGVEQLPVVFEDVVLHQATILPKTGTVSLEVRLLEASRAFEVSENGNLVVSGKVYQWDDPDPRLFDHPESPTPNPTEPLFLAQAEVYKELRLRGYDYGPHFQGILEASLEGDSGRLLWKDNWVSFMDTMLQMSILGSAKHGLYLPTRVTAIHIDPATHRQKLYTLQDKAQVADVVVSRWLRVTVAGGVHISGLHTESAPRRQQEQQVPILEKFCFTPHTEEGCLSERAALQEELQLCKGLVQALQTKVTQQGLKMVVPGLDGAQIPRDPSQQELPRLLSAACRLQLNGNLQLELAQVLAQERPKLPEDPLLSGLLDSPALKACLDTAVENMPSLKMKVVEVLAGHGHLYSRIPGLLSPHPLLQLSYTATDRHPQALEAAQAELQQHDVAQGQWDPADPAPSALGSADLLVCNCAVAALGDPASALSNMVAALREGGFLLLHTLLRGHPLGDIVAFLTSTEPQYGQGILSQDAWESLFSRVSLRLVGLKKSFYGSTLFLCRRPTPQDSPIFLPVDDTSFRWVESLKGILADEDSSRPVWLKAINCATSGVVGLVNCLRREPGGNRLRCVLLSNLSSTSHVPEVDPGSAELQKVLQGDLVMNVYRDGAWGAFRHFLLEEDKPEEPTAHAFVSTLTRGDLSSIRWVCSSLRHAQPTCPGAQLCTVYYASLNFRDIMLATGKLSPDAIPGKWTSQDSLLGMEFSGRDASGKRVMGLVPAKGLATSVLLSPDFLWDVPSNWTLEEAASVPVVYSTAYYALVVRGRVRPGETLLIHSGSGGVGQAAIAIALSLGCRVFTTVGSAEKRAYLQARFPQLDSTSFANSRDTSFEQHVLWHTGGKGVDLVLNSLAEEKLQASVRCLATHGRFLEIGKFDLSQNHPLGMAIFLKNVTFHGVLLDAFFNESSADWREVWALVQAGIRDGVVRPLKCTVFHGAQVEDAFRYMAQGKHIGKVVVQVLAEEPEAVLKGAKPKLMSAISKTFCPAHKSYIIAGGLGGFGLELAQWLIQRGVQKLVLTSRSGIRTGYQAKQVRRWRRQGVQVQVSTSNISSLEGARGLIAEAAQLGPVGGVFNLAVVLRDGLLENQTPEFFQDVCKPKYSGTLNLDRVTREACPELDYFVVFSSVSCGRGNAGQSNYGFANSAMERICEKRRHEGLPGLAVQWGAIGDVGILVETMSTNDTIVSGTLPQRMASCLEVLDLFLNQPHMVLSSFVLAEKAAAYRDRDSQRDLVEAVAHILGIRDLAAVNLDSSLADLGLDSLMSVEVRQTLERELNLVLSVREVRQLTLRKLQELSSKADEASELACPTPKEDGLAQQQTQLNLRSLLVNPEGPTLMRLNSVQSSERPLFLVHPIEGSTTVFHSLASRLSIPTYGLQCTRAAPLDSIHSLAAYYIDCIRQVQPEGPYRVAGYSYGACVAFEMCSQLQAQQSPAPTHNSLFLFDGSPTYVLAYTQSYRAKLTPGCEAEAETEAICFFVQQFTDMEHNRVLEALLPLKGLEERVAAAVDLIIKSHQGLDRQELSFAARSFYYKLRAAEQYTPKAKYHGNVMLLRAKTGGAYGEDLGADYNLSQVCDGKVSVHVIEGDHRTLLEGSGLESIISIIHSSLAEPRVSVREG

Regarding `COc1ccc(N(C(=O)n2nnn(-c3ccccc3C#N)c2=O)C2CCCCC2)cc1C(=O)O`, on human FASN [1], the IC50 lay within 100 to 200 nM.
The same measure, in the same setting: to `CCN(C(=O)n1nnn(-c2ccccc2Oc2ccccc2)c1=O)c1ccc(C(=O)O)cc1` belongs below 15 nM; to `CCN(C(=O)n1nnn(-c2c(F)cccc2F)c1=O)c1ccc(F)cc1F`, below 15 nM.
Regarding `CCN(C(=O)n1nnn(-c2c(F)cccc2F)c1=O)c1cc(C(=O)O)ccc1OC(C)C`, the IC50 at human FASN [1] lay within 15 to 100 nM.
As to `COc1ccc(N(C(=O)n2nnn(-c3c(F)cccc3F)c2=O)C(C)C)cc1C(=O)OCc1ccccc1`, the IC50 against human FASN [1] was below 15 nM.
`CCNC(=O)Nc1ccc(N(CC)C(=O)n2nnn(-c3c(F)cccc3F)c2=O)c(F)c1` showed an IC50 on human FASN [1] below 15 nM.
Regarding `CCN(C(=O)n1nnn(-c2c(F)cccc2F)c1=O)c1ccc(N)cc1F`, at human FASN [1], the IC50 was below 15 nM.
Same read-out and setting: as for `CCN(C(=O)n1nnn(-c2c(F)cccc2F)c1=O)c1ccc(NC(C)=O)cc1F`, the figure is below 15 nM; as for `O=C(O)COc1ccc(N(C(=O)n2nnn(-c3c(F)cccc3F)c2=O)C2CCCCC2)cc1`, below 15 nM; as for `O=C(O)[C@@H]1CCCN1c1ccc(N(C(=O)n2nnn(-c3c(F)cccc3F)c2=O)C2CCCCC2)cc1`, below 15 nM.
Turning to `CCN(C(=O)n1nnn(-c2c(F)cccc2F)c1=O)c1cc(C(=O)O)ccc1OCCc1ccccc1`, at human FASN [1], the IC50 was below 15 nM.
The same measure, in the same setting: to `CCN(C(=O)n1nnn(-c2c(F)cccc2F)c1=O)c1c(F)cccc1F` belongs below 15 nM; to `CCCCOc1ccc(C(=O)O)cc1N(CC)C(=O)n1nnn(-c2c(F)cccc2F)c1=O`, below 15 nM; to `CCN(C(=O)n1nnn(-c2c(F)cccc2F)c1=O)c1ccccc1F`, below 15 nM.
The same measure, in the same setting: to `CCN(C(=O)n1nnn(-c2c(F)cccc2F)c1=O)c1ccc(NS(C)(=O)=O)cc1F` belongs below 15 nM.
Consider `COc1ccc(C(=O)OCc2ccccc2)cc1N(CCCc1ccccc1)C(=O)n1nnn(-c2c(F)cccc2F)c1=O`, for which the IC50 at human FASN [1] is below 15 nM.
The compound `CCN(C(=O)n1nnn(-c2c(F)cccc2F)c1=O)c1ccc(C(=O)O)cc1Oc1ccccc1` returned an IC50 on human FASN [1] below 15 nM.
Same read-out and setting: to `CCN(C(=O)n1nnn(-c2c(F)cccc2F)c1=O)c1ccccc1Oc1ccccc1` belongs below 15 nM; to `CCN(C(=O)n1nnn(-c2c(F)cccc2F)c1=O)c1ccc(OC)c(C(=O)O)c1`, 15 to 100 nM; to `CCN(C(=O)n1nnn(-c2c(F)cccc2F)c1=O)c1ccc(C(=O)O)c(OC)c1`, below 15 nM.
The same measure, in the same setting: to `O=C(N(c1ccccc1)C1CCCCC1)n1nnn(-c2c(F)cccc2F)c1=O` belongs below 15 nM.
Consider `CCNC(=O)N1CCN(c2ccc(N(C(=O)n3nnn(-c4c(F)cccc4F)c3=O)C3CCCCC3)cc2C(=O)O)CC1`, for which the 50% inhibitory concentration (IC50) on human FASN [1] is below 15 nM.
`CCOC(=O)N1CCN(c2ccc(N(C(=O)n3nnn(-c4c(F)cccc4F)c3=O)C3CCCCC3)cc2C(=O)O)CC1`: the IC50 on human FASN [1] was below 15 nM.
With `CCOC(=O)c1cc(C)n(-c2ccc(N(C(=O)n3nnn(-c4c(F)cccc4F)c3=O)C3CCCCC3)cc2C(=O)O)n1`, the IC50 against human FASN [1] was below 15 nM.
The compound `CCOC(=O)c1cc(C)n(-c2ccc(N(C(=O)n3nnn(-c4c(F)cccc4F)c3=O)C3CCCCC3)cc2C(=O)OCc2ccccc2)n1` showed an IC50 on human FASN [1] below 15 nM.
On human FASN [1], `O=C(O)c1cc(N(C(=O)n2nnn(-c3c(F)cccc3F)c2=O)C2CCCCC2)ccc1OC(=O)N1CCOCC1` had an IC50 below 15 nM.
Still for that read-out and setting: to `CS(=O)(=O)N1CCN(c2ccc(N(C(=O)n3nnn(-c4c(F)cccc4F)c3=O)C3CCCCC3)cc2C(=O)O)CC1` belongs below 15 nM; to `COc1ccc(N(C(=O)n2nnn(-c3c(F)cccc3F)c2=O)C2CCCCC2)cc1C(=O)NC(C)(C)C(=O)O`, below 15 nM.
`CNC(=O)c1cc(N(C(=O)n2nnn(-c3c(F)cccc3F)c2=O)C2CCCCC2)ccc1OC` returned an IC50 at human FASN [1] below 15 nM.
As to `CC(=O)N1CCN(c2ccc(N(C(=O)n3nnn(-c4c(F)cccc4F)c3=O)C3CCCCC3)cc2C(=O)O)CC1`, the IC50 against human FASN [1] is below 15 nM.
In the case of `CCN(C(=O)n1nnn(-c2c(Cl)cccc2Cl)c1=O)C1CCN(C(=O)Cc2ccccc2)CC1`, at human FASN [2], the IC50 is 250 to 1000 nM.
Still for that read-out and setting: as for `CCNC(=O)N1CCC(N(CC)C(=O)n2nnn(-c3c(Cl)cccc3Cl)c2=O)CC1`, the figure is 1000 to 10000 nM; as for `CCc1ccccc1-n1nnn(C(=O)N(CC)C2CCCCC2)c1=O`, 1000 to 10000 nM; as for `CCN(C(=O)n1nnn(-c2ccccc2I)c1=O)C1CCCCC1`, 1000 to 10000 nM.
Still for that read-out and setting: to `CCC(C)c1ccccc1-n1nnn(C(=O)N(CC)C2CCCCC2)c1=O` (stereo not drawn) belongs 1000 to 10000 nM.
`CCN(C(=O)n1nnn(-c2ccccc2F)c1=O)C1CCCCC1` registered an IC50 against human FASN [2] of 1000 to 10000 nM.
Same read-out and setting: as for `CCN(C(=O)n1nnn(-c2ccccc2C(C)(C)C)c1=O)C1CCCCC1`, the figure is above 10000 nM; as for `CCN(C(=O)n1nnn(-c2ccccc2Cl)c1=O)C1CCCCC1`, 1000 to 10000 nM; as for `CCN(C(=O)n1nnn(-c2ccccc2Br)c1=O)C1CCCCC1`, 1000 to 10000 nM.
With `CC(C)N(C(=O)n1nnn(-c2ccccc2Cl)c1=O)C1CCCCC1`, the IC50 at human FASN [2] was above 10000 nM.
For `CCN(C(=O)n1nnn(-c2ccccc2OC(F)(F)F)c1=O)C1CCCCC1`, at human FASN [2], the IC50 lay within 1000 to 10000 nM.
On human FASN [2], `CCN(C(=O)n1nnn(-c2ccccc2C#N)c1=O)C1CCCCC1` came in with an IC50 of 1000 to 10000 nM.
On the same count and under the same terms, to `CCN(C(=O)n1nnn(-c2ccccc2OC)c1=O)C1CCCCC1` belongs 1000 to 10000 nM; to `CN(C(=O)n1nnn(-c2ccccc2Cl)c1=O)C1CCCCC1`, 1000 to 10000 nM; to `CCN(C(=O)n1nnn(-c2ccccc2C(C)C)c1=O)C1CCCCC1`, 1000 to 10000 nM.
Consider `CCN(C(=O)n1nnn(-c2ccccc2C)c1=O)C1CCCCC1`, for which the IC50 against human FASN [2] lay in the range of 1000 to 10000 nM.
Turning to `CCCN(C(=O)n1nnn(-c2ccccc2Cl)c1=O)C1CCCCC1`, the IC50 at human FASN [2] is 1000 to 10000 nM.
`CCN(C(=O)n1nnn(-c2ccc([N+](=O)[O-])cc2)c1=O)C1CCCCC1` came in with an IC50 against human FASN [2] of 1000 to 10000 nM.
Still for that read-out and setting: as for `CCN(C(=O)n1nnn(-c2ccc(OC)cc2)c1=O)C1CCCCC1`, the figure is above 10000 nM; as for `CCN(C(=O)n1nnn(-c2ccc(C(F)(F)F)cc2)c1=O)C1CCCCC1`, above 10000 nM.
`CCN(C(=O)n1nnn(-c2ccc(Cl)cc2)c1=O)C1CCCCC1` registered an IC50 against human FASN [2] above 10000 nM.
As for `CCN(C(=O)n1nnn(-c2ccc(N(C)C)cc2)c1=O)C1CCCCC1`, at human FASN [2], the IC50 was in the range of 1000 to 10000 nM.
For `CCN(C(=O)n1nnn(-c2ccc(F)cc2)c1=O)C1CCCCC1`, the IC50 against human FASN [2] was above 10000 nM.
Compound `CCN(C(=O)n1nnn(-c2cccc(F)c2)c1=O)C1CCCCC1` gave an IC50 on human FASN [2] above 10000 nM.
With `CCN(C(=O)n1nnn(-c2cccc(OC)c2)c1=O)C1CCCCC1`, the IC50 on human FASN [2] was above 10000 nM.
At human FASN [2], `CCN(C(=O)n1nnn(-c2cccs2)c1=O)C1CCCCC1` gave an IC50 of 1000 to 10000 nM.
Regarding `CCN(C(=O)n1nnn(-c2ccsc2)c1=O)C1CCCCC1`, the IC50 against human FASN [2] is above 10000 nM.
Regarding `CCN(C(=O)n1nnn(-c2c(C)nn(C)c2C)c1=O)C1CCCCC1`, the IC50 against human FASN [2] was above 10000 nM.
On human FASN [2], `CCN(C(=O)n1nnn(-c2c(C)noc2C)c1=O)C1CCCCC1` yielded an IC50 above 10000 nM.
With `CC(C)(C)OC(=O)N(C(=O)n1nnn(-c2c(F)cccc2F)c1=O)c1ccco1`, the IC50 on human FASN [2] lay in the range of 1000 to 10000 nM.
